The test system of series [1] is hematological tumor cells. Put plainly: Nucleophosmin vaccination before injection of hematological tumor cells. It is filed as in vivo. The settings on record: mice vaccinated prior to injection of tumor cells vs not vaccinated.
The conditions of series [2]: anti-CD19 antibody immunoconjugate vs free Ida; read-out: activities; cited from earlier work.
Series [3] deals with E3 target cells. The settings on record: cited from earlier work.
In series [4] the test system is antigen-positive E3 cell line. The settings on record: cited from earlier work.
Series [5] deals with NB4 cell line. The series is described as follows: Cytotoxicity of Ara-C, MTT staining of viable cells. Format: cell-based. The settings on record: 0 to 1 mM, 72 hours. The procedure: The cytotoxicity of cytosine-β-D-arabinoside (Ara-C) against CEM, HL60 and NB4 cell lines was examined. Cells were seeded in 96 well plates at 1.5×10^4 cells/well in RPMI1640, 10% FBS, 1 mM HEPES or α-MEM, 10% FBS for HL60 and NB4 or CEM, respectively, with varying concentrations of Ara-C (0 to 1 mM). Cytotoxicity was assessed after 72 hours by staining the viable cells with MTT.

Data on four compounds can be found in patent US7413851B2, “Nucleophosmin directed diagnostics and therapeutics for multidrug resistant neoplastic disease” (Aurelium Biopharma, Inc., priority 2002, dated 2008).

Consider “nucleophosmin: purified full length murine nucleophosmin protein used as vaccine antigen, optionally with adjuvant”, for which the tumor size entry in series [1] is recorded as “smaller”.
`CC(=O)[C@]1(O)Cc2c(O)c3c(c(O)c2[C@@H](O[C@H]2C[C@H](N)[C@H](O)[C@H](C)O2)C1)C(=O)c1ccccc1C3=O` [Ida, Idarubicin]: the IC50 in series [2] was 0.012 µM; in series [3], 0.12 µM.
For `O=c1[nH]c(=O)n([C@H]2C[C@H](O)[C@@H](CO)O2)cc1F` [FUDR, 5-fluoro-2′-deoxyuridine], the IC50 in series [4] was 0.0004 µM.
In the case of `Nc1ccn([C@@H]2O[C@H](CO)[C@@H](O)[C@@H]2O)c(=O)n1` [Ara-C, cytosine-β-D-arabinoside], the “cytotoxicity against NB4 (FIG. 14)” value in series [5] was “resistance”.
